In patent US12582642B2, “Composition for treating, improving, and/or preventing progression of bovine papillomatosis caused by bovine papillomavirus” (KinoPharma, Inc., priority 2020, dated 2026):
Values joined by “and” are separate entries in the source; they are usually repeats but may differ in a detail not shown here. Equal values may be shown once. “Also recorded” adds a separate entry of the source.

What was measured:
[1] = tested on: bovine papilloma (wart) caused by BPV in front teats; assay: Therapeutic effect confirmation test performed on dairy cow having papilloma; type: in vivo, cow (female dairy cows); design: key to Determination (pharmaceutical effect for each individual cow): Effective: Test section>Control section; Ineffective: Test section≤Control section
Text: To female dairy cows (four), each having papillomas in both of front teats, an ointment agent containing Compound A was applied once a day to a papilloma (wart) of one of the front teats (test section). A dressing tape (Navis, PROSHARE Dressing Role, No. 8-5965-01) was applied around the teat after the application of the ointment agent to prevent external contamination. The ointment agent was applied over a surface of the teat at about 0.01 g to about 0.2 g (equivalent to the active ingredient of about 0.3 mg to about 6 mg) per 1 cm^2 of the surface area. The application (treatment) of 5-day administration with 2-day rest was continued for 4 weeks. The diseased part was imaged once a week. Pharmaceutical effects were evaluated based on a state of the diseased part (wart) four weeks after the start of the application.
Changes (size reduction/disappearance, no change, and growth/occurrence) of warts after four-week administration were evaluated with the following three-level evaluation scores. No change” includes the suppression of growth and being non-effective. “Occurrence” means that a new wart was generated during the four-week administration.
Size reduction/disappearance=+1, no change=0, and growth/occurrence=−1.
Further, scores were added for each individual cow, and pharmaceutical effects for each individual cow were determined based on the following criteria. • Effective: Test section>Control section • Ineffective: Test section≤Control section
When only small warts were targeted, the growth or size reduction of warts noticeably appear, which is considered to make it easier to determine the effects of Compound A. In view of this, only warts having a size of less than 5 mm before the application of an ointment agent were selected from the test sections and the control sections in the above-described confirmation test, and the ratio of warts that had smaller sizes or disappeared was calculated.

[2] = tested on: bovine papilloma (wart) caused by BPV in front teats; assay: as above; type: in vivo, cow (female dairy cows)
[3] = total of cows 01-04, ointment 3% by weight, 4 weeks

Compound: Fc1ccc(N2CCCCC2)c(NC(=S)c2ccncc2)c1 [Compound A, N-[5-fluoro-2-(1-piperidinyl)phenyl]-4-pyridinethioamide]
- Ratio of warts that had smaller sizes or disappeared ([1]; Evaluation Method 2: only warts of less than 5 mm before application, 14 warts in the test sections, control sections 0%): 28.6%
- Overall judgement of the ointment agent containing Compound A ([1]; based on the total scores and on the individual cow evaluations, 4 weeks): considered effective
- Cases (cows) determined effective out of four cases ([1]; four cows, 4 weeks, ointment 3% by weight): Effective in three
- State of diseased part in a test section (FIG. 2 images) ([1]; from before the start of administration to after the end of administration): warts disappeared
- Test section Growth/Occurrence (evaluation score) ([1]; per individual cow, ointment (Compound A: 3% by weight) applied once a day to teat wart, 4 weeks, growth/occurrence=−1 per wart): 0 (3×) and −6
- Test section Size reduction/Disappearance (evaluation score) ([1]; per individual cow, ointment (Compound A: 3% by weight, white petrolatum) applied once a day to teat wart, 5-day administration with 2-day rest, 4 weeks, size reduction/disappearance=+1 per wart): +1 (2×) and +3 and +2
- Determination (pharmaceutical effect for each individual cow) ([1]; per individual cow, test section score versus control section (ointment base) score, 4 weeks): Ineffective; also recorded: Effective
- Effectiveness score Test section ([1]; scores added for each individual cow, ointment 3% by weight, 4 weeks): +1 (2×) and −3 and +2
- Test section Growth/Occurrence, Total of four cows [1, 3]: −6
- Test section Size reduction/Disappearance, Total of four cows [1, 3]: +7
- Effectiveness score Test section, Total ([1]; total of four cows, control sections total −8, 4 weeks): +1
- Warts that disappeared among the additional reduced warts in the test section ([2]; administration continued for a further four weeks after the four-week administration): two
- Additional warts with reduced size in the test section ([2]; administration continued under the same conditions for a further four weeks after the four-week administration): four
